In this assay the test system is Porcine Skin. In words: Porcine Skin Test (thermo-mechanical analyzer deflection, 20 gram load). The procedure: A feature of the present invention is that malonate salts are those which impart to the composition a positive Flexibility Value of at least 1, preferably at least 1.1 relative to water in the Porcine Skin Test. This test utilizes a thermo-mechanical analyzer with a 20 gram load to a one-cm diameter disc of Porcine Skin from which the immediate deflection is recorded in mm. Water serves as a control. Skin samples are measured before and 24 hours after one, two and three treatments. These treatments consist of 150 μl of each composition being applied to the skin for five minutes, then removed without rinsing. Thereafter, drying is performed at 21° C. and less than 100% relative humidity. Data transformation consists of determining the ratio of the deflection value after three applications of the test composition to the deflection value of the water standard. The ratio is defined as the Flexibility Value.
A variety of carboxylic acid salts were evaluated to determine their response in a Porcine Skin Test. A Perkin-Elmer Thermo-Mechanical Analyzer, Model TMS-1, was operated with a 20 gram load placed to a center of a one-cm diameter disc of Porcine Skin. Deflection of the skin in mm was immediately recorded. The sample size was six pieces of skin per treatment. Water was used as a control. […] Each was measured dry before and 24 hours after one, two and three treatments. […]

On to “Dimethylethanolammonium Malonate [Malonate Salt]”, for which the “Flexibility Value” (test material solution, 150 μl applied 5 minutes, ratio of deflection after three applications to deflection of water standard (water = 1.00)) turned out to be 1.36. Further, the “effect on skin flexibility (in words)” value (test material solutions, versus water) is “significantly more flexible”.

The values above are taken from US20040185073A1, “Cosmetic compositions containing salts of malonic acid” (Unilever Home & Personal Care USA, Division of Conopco, Inc., priority 2003, published 2004).
